Test results published in PubChem BioAssay AID1918941 (Molecular Pharmacology Branch, DTP, NCI, 2023).

Test system: SW 1271 complex spheroids, viability
Test: Anticancer human tumor SW 1271 cell line growth inhibition [LSD1];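 further: spheroids exposed to agents for 7 days before luminescence read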;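 on viability, T/C: 100% = DMSO vehicle control viability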
Details: for IC50: curve of first compound; for viability, T/C: stronger effect = lower value
Outline: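 Complex spheroids of tumor cells with HUVEC and human MSCs, exposed to iadademstat combined with other agents. Each agent tested in half-log steps from near clinical Cmax (else 10 microM top), DMSO ≤0.25%.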

[1] = second compound 0.1 µM, first compound 0.000316 µM
[2] = second compound 0.1 µM, first compound 0.001 µM
[3] = second compound 0.1 µM, first compound 0.00316 µM
[4] = second compound 0.1 µM, first compound 0.01 µM
[5] = second compound 0.1 µM, first compound 0.0316 µM
[6] = second compound 0.1 µM, first compound 0.1 µM
[7] = second compound 0.316 µM, first compound 0.000316 µM
[8] = second compound 0.316 µM, first compound 0.001 µM
[9] = second compound 0.316 µM, first compound 0.00316 µM
[10] = second compound 0.316 µM, first compound 0.01 µM
[11] = second compound 0.316 µM, first compound 0.0316 µM
[12] = second compound 0.316 µM, first compound 0.1 µM
[13] = second compound 1 µM, first compound 0.000316 µM
[14] = second compound 1 µM, first compound 0.001 µM
[15] = second compound 1 µM, first compound 0.00316 µM
[16] = second compound 1 µM, first compound 0.01 µM
[17] = second compound 1 µM, first compound 0.0316 µM
[18] = second compound 1 µM, first compound 0.1 µM
[19] = second compound 3.16 µM, first compound 0.000316 µM
[20] = second compound 3.16 µM, first compound 0.001 µM
[21] = second compound 3.16 µM, first compound 0.00316 µM
[22] = second compound 3.16 µM, first compound 0.01 µM
[23] = second compound 3.16 µM, first compound 0.0316 µM
[24] = second compound 3.16 µM, first compound 0.1 µM
[25] = second compound 10 µM, first compound 0.000316 µM
[26] = second compound 10 µM, first compound 0.001 µM
[27] = second compound 10 µM, first compound 0.00316 µM
[28] = second compound 10 µM, first compound 0.01 µM
[29] = second compound 10 µM, first compound 0.0316 µM
[30] = second compound 10 µM, first compound 0.1 µM

Work on `CC(C)CC(NC(=O)C(Cc1ccccc1)NC(=O)c1cnccn1)B(O)O` (stereo not given) + NC1CCC(NC2CC2c2ccccc2)CC1 yielded an IC50 (second compound 0.1 µM) of less than 0.316 nM, an IC50 (second compound 0.316 µM) of less than 0.316 nM and an IC50 (second compound 1 µM) of less than 0.316 nM. The IC50 (second compound 3.16 µM) was less than 0.316 nM, the IC50 (second compound 10 µM) was less than 0.316 nM and the viability, T/C [1] was 2.37%. For the same compound, the viability, T/C [2] was 0.35%, the viability, T/C [3] was 0.16% and the viability, T/C [4] was 0.13%. It also gave a viability, T/C [5] of 0.13%, a viability, T/C [6] of 0.32% and a viability, T/C [7] of 3.05%. It also gave a viability, T/C [8] of 0.13%, a viability, T/C [9] of 0.12% and a viability, T/C [10] of 0.27%. It also gave a viability, T/C [11] of 0.33%, a viability, T/C [12] of 0.2% and a viability, T/C [13] of 2.83%. It also gave a viability, T/C [14] of 0.08%, a viability, T/C [15] of 1.7% and a viability, T/C [16] of 0.43%. It also gave a viability, T/C [17] of 0.14%, a viability, T/C [18] of 0.11% and a viability, T/C [19] of 2.94%. The viability, T/C [20] was 0.33%, the viability, T/C [21] was 0.37% and the viability, T/C [22] was 0.09%. It also gave a viability, T/C [23] of 0.16%, a viability, T/C [24] of 0.31% and a viability, T/C [25] of 2.41%. The viability, T/C [26] was 0.43%, the viability, T/C [27] was 0.14% and the viability, T/C [28] was 0.16%. It also gave a viability, T/C [29] of 0.12% and a viability, T/C [30] of 0.19%.
With `CC(C)CC(NC(=O)CNC(=O)c1cc(Cl)ccc1Cl)B1OC(=O)CC(CC(=O)O)(C(=O)O)O1` (stereo not given) + NC1CCC(NC2CC2c2ccccc2)CC1 the IC50 (second compound 0.1 µM) was 4.95 nM, the IC50 (second compound 0.316 µM) was 4.94 nM and the IC50 (second compound 1 µM) was 5.09 nM. The IC50 (second compound 3.16 µM) was 5.19 nM, the IC50 (second compound 10 µM) was 5.23 nM and the viability, T/C [1] was 93.8%. It also gave a viability, T/C [2] of 88.8%, a viability, T/C [3] of 78.4% and a viability, T/C [4] of 5.55%. The viability, T/C [5] was 0.31%, the viability, T/C [6] was 0.44% and the viability, T/C [7] was 92.7%. For the same compound, the viability, T/C [8] was 90%, the viability, T/C [9] was 78.1% and the viability, T/C [10] was 5.75%. The viability, T/C [11] was 0.88%, the viability, T/C [12] was 0.13% and the viability, T/C [13] was 78.5%. It also gave a viability, T/C [14] of 80.4%, a viability, T/C [15] of 83.8% and a viability, T/C [16] of 6.04%. The viability, T/C [17] was 0.34%, the viability, T/C [18] was 0.23% and the viability, T/C [19] was 93.7%. It also gave a viability, T/C [20] of 93.9%, a viability, T/C [21] of 81.4% and a viability, T/C [22] of 8.6%. It also gave a viability, T/C [23] of 0.51%, a viability, T/C [24] of 0.36% and a viability, T/C [25] of 85.3%. For the same compound, the viability, T/C [26] was 79.2%, the viability, T/C [27] was 86.2% and the viability, T/C [28] was 6.72%. The viability, T/C [29] was 0.65% and the viability, T/C [30] was 0.38%.
`Nc1ccccc1NC(=O)c1ccc(CNC(=O)OCc2cccnc2)cc1` + NC1CCC(NC2CC2c2ccccc2)CC1 showed an IC50 (second compound 0.1 µM) of 158 nM, an IC50 (second compound 0.316 µM) of 150 nM and an IC50 (second compound 1 µM) of 153 nM. It also gave an IC50 (second compound 3.16 µM) of 152 nM, an IC50 (second compound 10 µM) of 147 nM and a viability, T/C (second compound 0.1 µM, first compound 0.00949 µM) of 89.1%. It also gave a viability, T/C (second compound 0.1 µM, first compound 0.03 µM) of 78.6%, a viability, T/C (second compound 0.1 µM, first compound 0.0949 µM) of 64.7% and a viability, T/C (second compound 0.1 µM, first compound 0.3 µM) of 33.4%. It also gave a viability, T/C (second compound 0.1 µM, first compound 0.949 µM) of 10.5%, a viability, T/C (second compound 0.1 µM, first compound 3 µM) of 5.83% and a viability, T/C (second compound 0.316 µM, first compound 0.00949 µM) of 93.6%. For the same compound, the viability, T/C (second compound 0.316 µM, first compound 0.03 µM) was 69.4%, the viability, T/C (second compound 0.316 µM, first compound 0.0949 µM) was 68% and the viability, T/C (second compound 0.316 µM, first compound 0.3 µM) was 31.2%. For the same compound, the viability, T/C (second compound 0.316 µM, first compound 0.949 µM) was 8.46%, the viability, T/C (second compound 0.316 µM, first compound 3 µM) was 5.39% and the viability, T/C (second compound 1 µM, first compound 0.00949 µM) was 101%. For the same compound, the viability, T/C (second compound 1 µM, first compound 0.03 µM) was 73.5%, the viability, T/C (second compound 1 µM, first compound 0.0949 µM) was 67.8% and the viability, T/C (second compound 1 µM, first compound 0.3 µM) was 35.9%. For the same compound, the viability, T/C (second compound 1 µM, first compound 0.949 µM) was 7.27%, the viability, T/C (second compound 1 µM, first compound 3 µM) was 8.95% and the viability, T/C (second compound 3.16 µM, first compound 0.00949 µM) was 95.5%. The viability, T/C (second compound 3.16 µM, first compound 0.03 µM) was 85.1%, the viability, T/C (second compound 3.16 µM, first compound 0.0949 µM) was 62.3% and the viability, T/C (second compound 3.16 µM, first compound 0.3 µM) was 32.9%. It also gave a viability, T/C (second compound 3.16 µM, first compound 0.949 µM) of 10.5%, a viability, T/C (second compound 3.16 µM, first compound 3 µM) of 4.3% and a viability, T/C (second compound 10 µM, first compound 0.00949 µM) of 95.8%. For the same compound, the viability, T/C (second compound 10 µM, first compound 0.03 µM) was 92.6%, the viability, T/C (second compound 10 µM, first compound 0.0949 µM) was 61.6% and the viability, T/C (second compound 10 µM, first compound 0.3 µM) was 29.2%. The viability, T/C (second compound 10 µM, first compound 0.949 µM) was 11.2% and the viability, T/C (second compound 10 µM, first compound 3 µM) was 7.03%.
Compound `O=C(c1cc(Cc2n[nH]c(=O)c3ccccc23)ccc1F)N1CCN(C(=O)C2CC2)CC1` + NC1CCC(NC2CC2c2ccccc2)CC1 has an IC50 (second compound 0.1 µM) greater than 10000 nM, an IC50 (second compound 0.316 µM) greater than 10000 nM and an IC50 (second compound 1 µM) greater than 10000 nM. The IC50 (second compound 3.16 µM) was greater than 10000 nM, the IC50 (second compound 10 µM) was greater than 10000 nM and the viability, T/C [5] was 82%. It also gave a viability, T/C [6] of 104%, a viability, T/C (second compound 0.1 µM, first compound 0.316 µM) of 95.3% and a viability, T/C (second compound 0.1 µM, first compound 1 µM) of 86.2%. It also gave a viability, T/C (second compound 0.1 µM, first compound 3.16 µM) of 82.6%, a viability, T/C (second compound 0.1 µM, first compound 10 µM) of 71.2% and a viability, T/C [11] of 85.7%. It also gave a viability, T/C [12] of 91.9%, a viability, T/C (second compound 0.316 µM, first compound 0.316 µM) of 97.3% and a viability, T/C (second compound 0.316 µM, first compound 1 µM) of 87.7%. It also gave a viability, T/C (second compound 0.316 µM, first compound 3.16 µM) of 81.9%, a viability, T/C (second compound 0.316 µM, first compound 10 µM) of 63.8% and a viability, T/C [17] of 82.7%. The viability, T/C [18] was 105%, the viability, T/C (second compound 1 µM, first compound 0.316 µM) was 91.5% and the viability, T/C (second compound 1 µM, first compound 1 µM) was 96.6%. For the same compound, the viability, T/C (second compound 1 µM, first compound 3.16 µM) was 79.8%, the viability, T/C (second compound 1 µM, first compound 10 µM) was 71.9% and the viability, T/C [23] was 81.6%. For the same compound, the viability, T/C [24] was 94.7%, the viability, T/C (second compound 3.16 µM, first compound 0.316 µM) was 101% and the viability, T/C (second compound 3.16 µM, first compound 1 µM) was 83.4%. It also gave a viability, T/C (second compound 3.16 µM, first compound 3.16 µM) of 84%, a viability, T/C (second compound 3.16 µM, first compound 10 µM) of 76.6% and a viability, T/C [29] of 93.8%. For the same compound, the viability, T/C [30] was 95.9%, the viability, T/C (second compound 10 µM, first compound 0.316 µM) was 94.5% and the viability, T/C (second compound 10 µM, first compound 1 µM) was 84.2%. For the same compound, the viability, T/C (second compound 10 µM, first compound 3.16 µM) was 78.1% and the viability, T/C (second compound 10 µM, first compound 10 µM) was 66.9%.
